Reference: US20190091198A1, “C[…] CANNABIS-BASED COMPOSITIONS AND METHODS FOR THE TREATMENT OF IN[…] THE GASTROINTESTINAL TRACT” (TO PHARMACEUTICALS LLC, priority 2016, published 2019)

Type: in vivo, human
Settings: for maximal mean blood (serum) level: single sublingual dose of Avidekel oil, 4 drops (6.4 mg Δ9-THC and 26 mg CBD), N=7, LC-MS/MS
Method: Blood samples were withdrawn at time 0 and after administration of Avidekel oil extract, a sublingual dose 4 drops. Blood samples were withdrawn in intervals of 15, 30, 45, 60 and 90 min., and 2, 3, 4, 5, and 6 h., and stored at −70° C. until analysis at NMS Labs using LC-MS/MS.
FIG. 2A-2D show mean cannabinoid blood levels after administration of a single dose of Avidekel oil (6.4 mg Δ^9-THC and 26 mg CBD).

[1] = single dose of Avidekel oil (6.4 mg Δ9-THC and 26 mg CBD), N=7

Row | SMILES | mean blood level after the drop from the maximum (single dose of Avidekel oil (6.4 mg Δ9-THC and 26 mg CBD), N=7, within 6 h sampling period) [ng/mL] | maximal mean blood (serum) level [ng/mL] | mean blood level after 90 min [1] [ng/mL] | mean blood level reached during the 6 h period (still rising) [1] [ng/mL] | blood levels 6 h after administration [1]
1 | CCCCCc1cc(O)c2c(c1)OC(C)(C)[C@@H]1CCC(CO)=C[C@@H]21 [11-Hydroxy Δ^9-THC] | 1.9 ± 1.1 | 4.5 ± 4.2 | – | – | –
2 | C=C(C)[C@@H]1CCC(C)=C[C@H]1c1c(O)cc(CCCCC)cc1O [CBD, 2-[(1R,6R)-6-isopropenyl-3-1-yl]-5-pentylbenzene-1,3-diol, reference compound] | – | 6.2 ± 5.9 | – | – | –
3 | CCCCCc1cc(O)c2c(c1)OC(C)(C)[C@@H]1CCC(C(=O)O)=C[C@@H]21 [Δ^9 Carboxy THC] | – | – | 34.5 ± 47.7 | 75.5 ± 77.0 | –
4 | CCCCCc1cc(O)c2c(c1)OC(C)(C)[C@@H]1CCC(C)=C[C@@H]21 [Δ^9-THC, (−)-(6aR,10aR)-6,6,9-Trimethyl-3-methylcyclohex-2-en-pentyl-6a,7,8,10α-tetrahydro-6H-benzo[c]chromen-1-ol, reference compound] | – | 2.3 ± 2.2 | – | – | typical to those after 24 hours of Cannabis washout
